Patent publication US12171743B2, “Forms of aticaprant” (Janssen Pharmaceuticals, Inc., priority 2022, dated 2024)
Entries after “also recorded” stand apart in the source; their conditions may differ.

Key:
Assay type in all cases: physicochemical
[1] = Solubility observation of Form III in solvents
Experimental: Form III of aticaprant (20 mg) was weighed into 3 HPLC vials. Each vial was treated with 10 vol (250 μL) of the relevant solvent at 25° C. and shaken. The sample in t-BuOH was placed at 90° C. for a few seconds, where a solution was obtained. The solutions were filtered using a 0.45 μm PTFE membrane Acrodisc filter, before being flash frozen in an acetone/dry ice bath for 5 minutes. The samples were then freeze-dried overnight. The resulting solids were characterized by XRPD.
[…] Form III of aticaprant (20 mg) was dispensed into amber HPLC vials (×49) with a magnetic stirrer bar. Each vial was treated with the relevant solvent (5 vol) at RT and stirred at 300 rpm for 10 mins. If suspensions were still observed, increasing volumes of the solvent were added until the material fully dissolved or until a maximum of 80 vol had been used (Table 20). All samples were heated to 50° C. and held for 1 hour. The samples were then cooled to 5° C. at a rate of 0.1° C./min and left to stir overnight. Any suspensions remaining at this point were subjected to maturation at RT/50° C. for 2 weeks.

[2] = Competitive slurries of Forms I, II and III (thermodynamic stability)
Experimental: Competitive slurrying experiments were carried out with Form I, Form II and Form III to determine the relative order of stability. Slurrying experiments were carried out in six different solvent systems 5 and 50° C.
Saturated solutions of Form III were prepared in different solvent systems. See, Table 32. Each vial was filled with the relevant solvent (1.5 mL in each) and placed to equilibrate at the relevant temperature. After this time, small spatulas of the solid were added until the solid no longer dissolved. Samples were left to stir at 5° C. and 50° C. for ca. 2 weeks or longer as noted.
Form III (180 mg) and Form II (180 mg) were combined into a 4 mL vial. The sample was placed on a turbula blender for 30 mins, after which a small sample was taken and analyzed by XRPD to confirm a mixture. 10 mg of this mixture was weighed and a mixture of Form I and Form II was instead used as seeds in the competitive slurries. To each vial was added the mixture of Forms I and II (7 mg). See, Table 33.

[3] = Gravimetric vapor sorption (GVS)
Experimental: Sorption isotherms were obtained using a SMS DVS Intrinsic moisture sorption analyzer, controlled by DVS Intrinsic Control software. The sample temperature was maintained at 25° C. by the instrument controls. The humidity was controlled by mixing streams of dry and wet nitrogen, with a total flow rate of 200 mL/min. The relative humidity was measured by a calibrated Rotronic probe (dynamic range of 1.0-100% RH), located near the sample. The weight change, (mass relaxation) of the sample as a function of % RH was constantly monitored by a microbalance (accuracy ±0.005 mg).
Typically, 5-30 mg of sample was placed in a tared mesh stainless steel basket under ambient conditions. The sample was loaded and unloaded at 40% RH and 25° C. (typical room conditions). A moisture sorption isotherm was performed as outlined below (2 scans per complete cycle). The standard isotherm was performed at 25° C. at 10% RH intervals over a 0-90% RH range. Typically, a double cycle (4 scans) was carried out. Data analysis was carried out within Microsoft Excel using the DVS Analysis Suite. See, Table 15.
The sample was recovered after completion of the isotherm and re-analyzed by XRPD.

[4] = Static storage at elevated temperature and humidity, form by XRPD; conditions: for form after static storage: (10 days), Form II prepared at 1 g scale; for form (XRPD) after static storage: 1 week
Experimental: After static storage of amorphous aticaprant at 40° C./75% RH for 1 week, Form II was obtained.
Fresh amorphous aticaprant was prepared for static storage at 40° C./75% RH for 1 week. Both solvents produced amorphous aticaprant. Tg was determined to be 45.5° C. by mDSC. See, Table 19 for the characterization of amorphous aticaprant.
Form I was obtained in the screens from ethyl acetate and MEK (both through solvent evaporation). It also was obtained from addition of heptane antisolvent to solutions in ethyl acetate and diethyl ether. The sample from the solubility assessment in ethyl acetate was isolated and characterized by XRPD, ^1H NMR, and DSC (FIG. 7), and static storage at elevated temperature and humidity.

Structure (SMILES): Cc1cc(C)cc(C2CCCN2Cc2ccc(Oc3ccc(C(N)=O)cc3F)cc2)c1 (centres unmarked) [Form III]
- solubility observation ([1]; 70% THF/H2O, 250 μL/10 vol, RT): Soluble, biphasic
- solubility observation ([1]; t-BuOH at 90° C.): (soluble at 90° C.)
- solubility observation ([1]; t-BuOH, 250 μL/10 vol, 25° C.): Insoluble
- relative stability among Forms I, II and III (in words) [2]: most stable form
- GVS hysteresis [3]: No hysteresis observed
- XRPD / form after GVS [3]: XRPD unchanged after GVS
- GVS max uptake ([3]; at 90% RH, 25° C.): 0.4% max uptake at 90% RH

Structure (SMILES): Cc1cc(C)cc(C2CCCN2Cc2ccc(Oc3ccc(C(N)=O)cc3F)cc2)c1 (centres unmarked) [Form II]
- stability after static storage at elevated temperature and humidity (in words) [4]: remained stable
- form after static storage ([4]; 25° C./97% RH): Form II
- form after static storage ([4]; 40° C./75% RH): Form II
- GVS hysteresis [3]: slight hysteresis
- XRPD / form after GVS [3]: XRPD post-GVS: Form II
- hygroscopicity (in words) [3]: slightly hygroscopic; also recorded: Sample exhibits low hygroscopicity

Structure (SMILES): Cc1cc(C)cc(C2CCCN2Cc2ccc(Oc3ccc(C(N)=O)cc3F)cc2)c1 (centres unmarked) [Form I]
- stability after static storage at elevated temperature and humidity (in words) [4]: remains stable
- form (XRPD) after static storage ([4]; 40° C./75% RH): Form I

Structure (SMILES): Cc1cc(C)cc(C2CCCN2Cc2ccc(Oc3ccc(C(N)=O)cc3F)cc2)c1 (centres unmarked) [amorphous aticaprant]
- form (XRPD) after static storage ([4]; 40° C./75% RH): Form II
- form (XRPD) after static storage ([4]; 40° C./75% RH, listed as amorphous Aticaprant): Form II
